Here are results for 2 compounds from the NIST ThermoML archive (doi:10.1016/j.fluid.2008.07.004).

For the series the following is noted: Liquid.

± gives the expanded uncertainty stated by the source.

As to `COC(C)=O` [methyl ethanoate], under “330.05 K”, the “vapor or sublimation pressure” value is given as 101.3 ± 3.6 kPa. On to `CCC(=O)OC` [methyl propanoate], for which the “vapor or sublimation pressure” value (352.65 K) came out at 101.3 ± 4 kPa.

One may read the vapor or sublimation pressure as the equilibrium pressure above the liquid or solid.
